We go through one substance from patent US6706692B1, “6-deoxy erythromycin derivatives, method for preparing same and use as medicines” (Aventis Pharma S.A., priority 1998, dated 2004).

Assay in all cases: Method of dilutions in liquid medium (M.I.C.)
What all share (type): cell-based
Common to all, as to settings: reading after 24 hours, 37° C.

One experiment relates to E. faecium 02D3HT1. Here is the method: (§1) A—Method of Dilutions in Liquid Medium A series of tubesis prepared in which the same quantity of nutritive sterile medium is distributed. Increasing quantities of the product to be studied are distributed into each tube, then each tube is sown with a bacterial strain. After incubation for twenty-four hours in a heating chamber at 37° C., the growth inhibition is evaluated by transillumination, which allows the minimal inhibitory concentrations (M.I.C.) to be determined, expressed in micrograms/cm^3. The following results were obtained with the product of the example: (reading after 24 hours)

Another experiment has as its system S. pneumoniae 030RO1i. Here is the method: as §1
The next experiment has as its system S. pneumoniae 030SJ5i. Here is the method: as §1
For another experiment, the system named is S. pneumoniae 030PW23c. On the procedure:
as §1

The next experiment relates to S. aureus 011UC4. On the procedure: as §1
The next experiment has as its system S. pneumoniae 030GR20. Here is the method: as §1
Experiment [1] concerns Streptococcus gr;G 02GOGR5. On the procedure: as §1
Another experiment concerns S. pneumoniae 032UC1. On the procedure:
as §1

The next experiment deals with S. mitis 02MitCB1. On the procedure:
as §1

The test system of a further experiment is S. mitis 02MitGR16i. On the procedure:
as §1

For another experiment, the system named is S. agalactiae 02B1SJ1c. Here is the method: as §1
In another experiment the test system is E. faecalis 02D2UC1. Here is the method: as §1
For a further experiment, the system named is S. agalactiae 02B1HT1. On the procedure: as §1

With “3-de[2,6-dideoxy-3-C-methyl-3-0-methyl-alpha-L-ribo-hexopyranosyl)-oxy]-3-oxo-12,11-[oxycarbonyl[[4-[4-(3-pyridinyl)-1H-imidazol-1-yl]-butyl]-imino]]-6,11,12-trideoxy-erythromycin [product of the example]”, the “minimal inhibitory concentrations (M.I.C.)” value with E. faecium 02D3HT1 was 0.040 micrograms/cm^3; in the experiment on S. pneumoniae 030RO1i, 0.600 micrograms/cm^3; in the experiment on S. pneumoniae 030SJ5i, 0.600 micrograms/cm^3; in the experiment with S. pneumoniae 030PW23c, 0.300 micrograms/cm^3; in the experiment on S. aureus 011UC4, 0.300 micrograms/cm^3; in the experiment with S. pneumoniae 030GR20, 0.600 micrograms/cm^3. Besides, the “minimal inhibitory concentrations (M.I.C.)” value was 0.040 micrograms/cm^3 in [1]; “<=0.02 micrograms/cm^3” with S. pneumoniae 032UC1; 0.040 micrograms/cm^3 in the experiment on S. mitis 02MitCB1; 0.300 micrograms/cm^3 with S. mitis 02MitGR16i; 2.500 micrograms/cm^3 with S. agalactiae 02B1SJ1c; 0.080 micrograms/cm^3 in the experiment on E. faecalis 02D2UC1. In addition, in the experiment with S. agalactiae 02B1HT1, the “minimal inhibitory concentrations (M.I.C.)” value is given as “<+0.02 micrograms/cm^3”.
